Reference: US20260027123A1, “Compositions for Modulating Lipoxygenase and Methods of Using Same” (The Regents of the University of California, priority 2022, published 2026)
Several values for one entry are separate records, joined by “and”; a condition that tells them apart may be missing. Equal values may be shown once.

Key:
Assay type in all cases: physicochemical
[1] = Compositions prepared by mixing with solvent and sonication; soluble yes/no; details: Table 2
Description: (§1) Compositions were generally prepared by mixing with solvent and sonicated at room temperature in a water bath for 10 minutes. After a 15 minute waiting period at room temperature, the composition was sonicated again for 15 minutes at room temperature. Table 1 provides a list of formulations prepared for Compound 27332 according to certain embodiments. Table 2 provides a list of formulations prepared for 5-(methylamino)-2-naphthalen-1-yl-1,3-oxazole-4-carbonitrile (Compound ML351) according to certain embodiments. Compositions were analyzed by absorbance spectrometry at 340 nm to characterize the solubility of the compounds in each solvent mixture. Measurements were taken using a Cary60 spectrophotometer. Briefly, 2 ml absolute EtOH was added to cuvette, and instrument blanked. Then 2 μl of the excipient buffer was added, and scanned from 450 nm to 200 nm in order to confirm no large/interfering peak at 340 nm. Next, 2 μl of […] (in absolute EtOH) was added to the cuvette and scanned (450 nm to 200 nm)—this was repeated twice more for a total of three measurements. The difference in Abs(340) was determined for each subsequent addition. These three measurements were used to calculate the concentration (in molarity) using previously determined epsilon, and converted back to mg/ml.

[2] = Absorbance spectrometry at 340 nm to characterize solubility in each solvent mixture (measured concentration); details: Table 2
Description: as §1

[3] = Viscosity of the composition; details: Table 2
[4] = Soluble after 24 hours at room temperature; details: Table 2, 20/80 DMA/PEG400
[5] = 20/80 DMA/PEG400, Approx Conc. 50 mg/ml
[6] = 20/80 DMA/PEG400, Approx Conc. 78.1 mg/ml
[7] = 20/80 DMA/PEG400, Approx Conc. 90.5 mg/ml
[8] = 20/80 Diethylacetamide/PEG400, Approx Conc. 50 mg/ml
[9] = Intralipid, Approx Conc. 0.250 mg/ml

## CNc1oc(-c2cccc3ccccc23)nc1C#N [ML351, 5-(methylamino)-2-naphthalen-1-yl-1,3-oxazole-4-carbonitrile]
[1]; [5]
  Soluble: yes
[1]; [6]
  Soluble: yes
[1]; [7]
  Soluble: No
[1]; [8]
  Soluble: yes
[1]; [9]
  Soluble: yes
[2]; [5]
  Measured Conc.: 46.1 mg/mL
[2]; [6]
  Measured Conc.: 75.7 mg/mL
[2]; [7]
  Measured Conc.: 66.3 mg/mL and 54.9 mg/mL
[2]; [8]
  Measured Conc.: 52.5 mg/mL and 45.5 mg/mL
[2]; [9]
  Measured Conc.: 0.315 mg/mL
[3]; [5]
  Viscosity: low
[3]; [6]
  Viscosity: low
[3]; [7]
  Viscosity: low
[3]; [8]
  Viscosity: low
[3]; [9]
  Viscosity: low
[4]; Approx Conc. 50 mg/ml
  Soluble after 24 hours at Room Temperature: yes
[4]; Approx Conc. 78.1 mg/ml
  Soluble after 24 hours at Room Temperature: yes
